“Also recorded” adds a separate entry of the source.
What was measured:
RAW 264.7 cells = test: in vitro osteoclast (OC) differentiation assay; type: cell-based, mouse
Procedure: OC differentiation was determined at day 5.
RAW 264.7 cells were cultured in OC-differentiating conditions in the presence or absence of the racemic mix (left) of HL840, the S-enantiomer (middle), or the R-enantiomer (right) at different concentrations, and their inhibitory effect on OC differentiation was determined at day 5.
To differentiate osteoclast (OC) from RAW 264.7 mouse macrophages, cells were cultured in the same way (2×10^4 per well), except that RANKL was added at a concentration of 20 ng/ml, for 5-6 days in the presence or absence of various compounds at different concentrations. To quantify the number of OCs, cultures were fixed and stained for tartrate-resistant acid phosphatase (TRAP) activity using an acid phosphatase kit (Kamiya Biomedical Company, Seattle, Wash.) according to the manufacturer's instructions. TRAP-positive multinucleated OCs (>3 nuclei) were counted using a tissue culture inverted microscope. All experiments were performed in triplicates and repeated 4 (C & D, n=12) or 3 (E-L; n=9) times. Percent inhibition of OC formation relative to cultures with PBS were calculated and presented as dose-response curves. IC50 values were calculated using the GraphPad-Prism software.

[1] = oral availability in vivo (oral gavage, serum levels); design: species or system DBA/1 mice
mice with CIA = test: collagen induced arthritis (CIA) animal model; type: in vivo, DBA/1 mice; details: oral, doses as low as 1.25 μg/Kg body weight twice weekly
Procedure: Arthritis incidence was recorded.
2-tailed Student t-test; **, p<0.005.
Specifically, experiments were conducted with an animal model of collagen induced arthritis (CIA).

SE-CRT interactions = test: inhibition of SE-CRT interactions; type: binding
SKG mice = test: pre-clinical model of RA in SKG mice; type: in vivo
[2] = permeability through Caco-2 cell layers; type: in vitro ADME; details: human

Compound	enantiomer-specific activity (e.g., inhibition of SE-CRT interaction and signaling) of racemic HL840 (RAW 264.7 cells; inhibitory effect on OC differentiation at day 5, FIG. 3)	IC50 (RAW 264.7 cells; Mus musculus, RAW264.7, 120 h, RAW 264.7 cells in OC-differentiating conditions, OC differentiation at day 5, read-out: anti-osteoclast (OC) activity IC50) [nM]	oral availability in vivo [1]	arthritis severity (mice with CIA)	bone destruction (radiologic bone damage) (mice with CIA)	disease development (arthritis incidence) (mice with CIA)	inhibition of SE-CRT interactions (SE-CRT interactions)	therapeutic effects (SKG mice)	Papp A→B [2] [×10⁻⁶ cm/s]
Cn1cc(/C=C/C(=O)N2CCC[C@@H](Cn3cc(CN)nn3)C2)cn1 (single isomer, unassigned) [(R)-enantiomer]	responsible for all activity	–	–	–	–	–	–	–	–
Cn1cc(/C=C/C(=O)N2CCC[C@@H](Cn3cc(CN)nn3)C2)cn1 (racemic) [HL840, (R,E)-(1-((1-(3-(1-methyl-1H-pyrazol-4-yl)acryloyl)piperidin-3-yl)methyl)-1H-1,2,3-triazol-4-yl)methanaminium]	–	0.0199	moderately orally available; also recorded: orally available in vivo	decreased arthritis severity	prevented bone destruction	strongly inhibited disease development	potent, competitive inhibition	Significant therapeutic effects	5.6

Source: US11613528B2, “Small molecule inhibitors of shared epitope-calreticulin interactions and methods of use” (The Regents of the University of Michigan, priority 2017, dated 2023)
